Experiments:
Assay type in all cases: cell-based
[1] = system: multi-resistant Staphylococcus aureus 18-596; assay: Paper diffusion drug sensitivity test, multi-resistant Staphylococcus aureus 18-596; details: for Zone of inhibition: Multi-resistant Staphylococcus aureus 18-596, 30 μg/tablet paper disc, LB plate, 37° C., 24 h; for inhibitory effect (in words): multi-drug resistant Staphylococcus aureus 18-596, FIGS. 1-3 and Table 1
Protocol: (§1) The antimicrobial efficacy was determined by a paper diffusion drug sensitivity test.
(§2) Experimental strains: multi-resistant Staphylococcus aureus 18-206, multi-resistant Staphylococcus aureus 18-222, multi-resistant Staphylococcus aureus 18-596. The experimental strain was identified by Huashan Hospital Affiliated to Fudan University (Institute of Antibiotic of Fudan University).
(§3) Drug sensitive paper: The drug sensitive paper is a special drug sensitive paper with a diameter of 6.35 mm and a water absorption of 0.02 mL. The control drug was vancomycin (30μg/tablet); the test drugs were pleuromulin (30 μg/tablet), lipoic acid (30 μg/tablet) and pleuromulin lipoic acid ester (30 μg/tablet).
(§4) Reagents: LB agar medium, LA broth medium, 0.5% DMSO solution.
(§5) The experimental strains were inoculated in non-selective medium and placed in air at 37° C. for 24 h. Pick a single colony that grows well and inoculate it into broth medium, incubate at 35° C.±2° C. for 6 hours, and use LA broth medium to calibrate the concentration of the bacterial solution to 0.5 Mie turbidimetric tube (1.5×10^8 CFU/mL). A bacterial suspension is obtained.
(§6) Weigh the LB dry powder, sterilize at 103.4 Kpa, 121.3° C. high-pressure steam for 15 min, and then put it in a 40° C.-50° C. water bath. Place a sterile empty plate (inner diameter 9 cm) on the surface of the ultra-clean table water table, shake and shake LB, and then pour the plate. The thickness of each plate is 3 mm to 4 mm. After the plate is cooled at room temperature, store it in the refrigerator at 2° C.-8° C. Use a sterile cotton swab to dip the bacterial solution, and evenly coat the surface of the LB plate 3 times. After inoculation of the bacterial suspension, the LB plate was dried at room temperature for 3 min to 5 min. Use sterile forceps to closely attach the antibacterial drug paper to the dish. Put the dish upside down and place it in a 37° C. incubator for 24 h. Observe the result and measure the diameter. Taking 0.5% DMSO solution as a negative control, the antibacterial activity is expressed by the diameter of the inhibition zone. The inhibition zone 17 mm, sensitive; the inhibition zone is 15 mm-16 mm, intermediary; the inhibition zone 14 mm, drug resistance.

[2] = system: multi-resistant Staphylococcus aureus 18-206; assay: Paper diffusion drug sensitivity test, multi-resistant Staphylococcus aureus 18-206; details: for Zone of inhibition: Multi-resistant Staphylococcus aureus 18-206, 30 μg/tablet paper disc, LB plate, 37° C., 24 h; for inhibitory effect (in words): multi-drug resistant Staphylococcus aureus 18-206, FIGS. 1-3 and Table 1
Protocol: as §1, §2, §3, §4, §5, §6

[3] = system: multi-resistant Staphylococcus aureus 18-222; assay: Paper diffusion drug sensitivity test, multi-resistant Staphylococcus aureus 18-222; details: for Zone of inhibition: Multi-resistant Staphylococcus aureus 18-222, 30 μg/tablet paper disc, LB plate, 37° C., 24 h; for inhibitory effect (in words): multi-drug resistant Staphylococcus aureus 18-222, FIGS. 1-3 and Table 1
Protocol: as §1, §2, §3, §4, §5, §6

Compound | Zone of inhibition [1] [mm] | inhibitory effect (in words) [1] | Zone of inhibition [2] [mm] | inhibitory effect (in words) [2] | Zone of inhibition [3] [mm] | inhibitory effect (in words) [3] | diameter of bacteriostatic zone ([1]; multidrug resistant Staphylococcus aureus 18-596)
O=C(O)CCCC[C@@H]1CCSS1 (racemic) [Lipoic acid] | 0 | no inhibitory effect | 0 | no inhibitory effect | 0 | no inhibitory effect | –
C=C[C@]1(C)C[C@@H](OC(=O)COC(=O)CCCCC2CCSS2)[C@]2(C)CC[C@@H](C)[C@@]3(CCC(=O)[C@@H]23)[C@@H](C)[C@@H]1O (stereo partly drawn) [Pleuromulin lipoic acid ester, 2-(((3aS,4R,5S,6S, 8R,9R,9aR,12R)-5-hydroxy-4,6,9,12-tetramethyl-1-oxo-6-vinyldecahydro-3 a, 9-propanocyclopenta[8]annulen-8-yl)oxy)-2-oxoethyl 5-(1,2-dithiolan-3-yl)pentanoate] | 20 | strong inhibitory effects | 16 | strong inhibitory effects | 16 | strong inhibitory effects | up to 21 mm
C=C[C@]1(C)C[C@@H](OC(=O)CO)[C@]2(C)[C@H](C)CC[C@]3(CCC(=O)[C@H]32)[C@@H](C)[C@@H]1O [Pleuromulin] | 0 | no inhibitory effect | 0 | no inhibitory effect | 0 | no inhibitory effect | –
CN[C@H](CC(C)C)C(=O)N[C@H]1C(=O)N[C@@H](CC(N)=O)C(=O)N[C@H]2C(=O)N[C@H]3C(=O)N[C@H](C(=O)N[C@H](C(=O)O)c4cc(O)cc(O)c4-c4cc3ccc4O)[C@H](O)c3ccc(c(Cl)c3)Oc3cc2cc(c3O[C@@H]2O[C@H](CO)[C@@H](O)[C@H](O)[C@H]2O[C@H]2C[C@](C)(N)[C@H](O)[C@H](C)O2)Oc2ccc(cc2Cl)[C@H]1O [Vancomycin] | 21 | – | 17 | – | 18 | – | –
